Assays:
[1] = test system: mice spleen lymphoctyes stimulated with Concanavalin A; test: lymphocyte stimulation test according to Janossy in vitro; format: cell-based; conditions: concentrations of 0.01 to 10.0 μg/ml, Concanavalin A stimulated mice spleen lymphocytes
ear swelling = test: Oxazolon test in mice; format: in vivo; conditions: 5×70 mg/kg p.o.
Method: (b) Oxazolon test in mice:
A decrease in the ear swelling is observed upon administration of 5×70 mg/kg p.o. of the compound.

SMILES	inhibition of H^3-thymidine incorporation [1]	inhibition of the blastogenese [1]	inhibition of the proliferation rate [1]	ear swelling (ear swelling)
CCCC[C@@H](C)[C@@H](O)C1C(=O)N[C@@H](C(C)C)C(=O)N(C)CC(=O)N(C)[C@@H](CC(C)C)C(=O)N[C@@H](C(C)C)C(=O)N(C)[C@@H](CC(C)C)C(=O)N[C@@H](C)C(=O)N[C@H](C)C(=O)N(C)[C@@H](CC(C)C)C(=O)N(C)[C@@H](CC(C)C)C(=O)N(C)[C@@H](C(C)C)C(=O)N1C (some centres unmarked) [dihydrocyclosporin D]	strong inhibition	strong inhibition	strong inhibition	decrease
C/C=C/C[C@@H](C)[C@@H](O)[C@H]1C(=O)N[C@@H](C(C)C)C(=O)N(C)CC(=O)N(C)[C@@H](CC(C)C)C(=O)N[C@@H](C(C)C)C(=O)N(C)[C@@H](CC(C)C)C(=O)N[C@@H](C)C(=O)N[C@H](C)C(=O)N(C)[C@@H](CC(C)C)C(=O)N(C)[C@@H](CC(C)C)C(=O)N(C)[C@@H](C(C)C)C(=O)N1C [cyclosporin D]	strong inhibition	strong inhibition	strong inhibition	decrease

From patent US4220641A, “Organic compounds” (Sandoz Ltd., priority 1977, dated 1980)
